Data published in US8680094B2, “1, 4-benzoxazine compounds and derivatives thereof as therapeutic drugs for the treatment of neurodegenerative conditions” (Board of Regents, The University of Texas System, priority 2008, dated 2014).

What was measured:
Format in all cases: cell-based, rat
[1] = system: cerebellar granule neurons; assay: Effect of inhibition of signal transduction pathways on neuroprotection by 1,4-benzoxazines in LK-treated cerebellar granule neurons; conditions: LK medium, 24 h; for effect of pharmacological inhibition of the MEK-ERK and PI-3K-Akt pathways on neuroprotective action: PD98059 40 μM, U0126 10 μM, Wortmannin 100 nm, Akt inhibitor-X 5 μM, DAPI
Method: Cultures of cerebellar granule neurons were switched to LK medium, LK medium containing of HSB-13, or LK medium containing HSB-13 and either PD98059 (40 μM), U0126 (10 μM), Wortmannin ([…]), Akt inhibitor-X (5 μM), KN-62 (10 μM), H89 (10 μM) and TSA (1 μM). Viability was quantified 24 h later by DAPI staining. The results were normalized to viability in control cultures which were switched to HK medium;
The Raf-MEK-ERK and P1-3 kinase-Akt signaling are two well-established and powerful anti-apoptotic pathways in mammalian cells that mediate the protective effects of a number of neurotrophic polypeptides, pharmacological agents, and neuroprotective compounds (D'Mello and Chin, 2005; Hetman et al., 2006). To determine whether either of these pathways was involved in the neuroprotective effect of 1,4-benzoxazines the inventors studied whether the pharmacological inhibition of these pathways affected their neuroprotective efficacy. […] Similarly, none of the compounds tested (the PI-3 kinase inhibitor, wortmannin, the Akt inhibitor X, or a commercially available inhibitor of Akt) reduced the ability of HSB-13 to protect neurons against LK-induced apoptosis (FIG. 3). […] As observed for HSB-13, pharmacological inhibition of the MEK-ERK and PI-3K-Akt pathways had no effect on the neuroprotective actions of ASK-2a or HSB-22.
Treatment of cerebellar granule neurons with HK activates calcium-calmodulin kinase (CaMK) and inhibition of CaMK with pharmacological inhibitors such as KN-62 inhibits HK-mediated survival (See et al., 2001; Linseman et al., 2003; Morrison et al., 2006). […] The present inventors recognized that several investigators have shown that cyclic AMP analogs and pharmacological activators of protein kinase A promote survival of cerebellar granule neurons as well as other neuronal types in the absence of other survival-promoting stimuli (Rydel and Greene, 1988; D'Mello et al., 1993; Hanson et al., 1998). PKA-mediated neuronal survival is blocked by treatment with H89, a potent and selective PICA inhibitor (Li et al., 2000; Bhave and Hoffman, 2004). […] The inventors have previously reported that histone deacetylase inhibitors such as trichostatin A block the ability of HK to maintain the survival of cerebellar granule neurons (Salminen et al., 1998; Boutillier et al., 2002; Morrison et al., 2006).

[2] = system: phospho-Akt (Ser473); assay: Western blot of signaling proteins in LK-treated cerebellar granule neurons: phospho-Akt (Ser473); conditions: LK medium with compound
Method: (§1) Cultures of cerebellar granule neurons were switched to HK medium, LK medium, or LK medium containing of HSB-13, HSB-22, or ASK-2a for 3 h. Total cell lysates were prepared and analyzed by Western blotting using antibodies against phospho-Akt (Ser473), phospho-MEK, phospho-ERK, and phospho-GSK3β.
(§2) The culture medium was removed and the cells were washed twice with ice-cold phosphate-buffered saline (PBS) and lysed in lysis buffer [1% Triton, 20 mM Tris-HCl (pH 7.5), 150 mM NaCl, 1 mM Na2EDTA, 1 mM EGTA, 2.5 mM sodium pyrophosphate, 1 mM beta-glycerophosphate, 1 mM Na3VO4, 1 μg/mL leupeptin and 1 protease inhibitor mixture]. Protein concentrations were measured and normalized using Bradford protein assay reagent (Bio-Rad, Hercules, Calif., USA). Following normalization, 40 μg of protein was subjected to Western blotting. Immunoreactivity was examined by enhanced chemiluminescence (Amersham Bioscience, Piscataway, N.J., USA).
Activation of MEK, ERK and Akt requires their phosphorylation, which can be detected using phospho-specific antibodies. As previously reported by the inventors and others (Chin et al., 2004; Johnson et al., 2005; Majdzadeh et al., 2008), MEK and ERK phosphorylation decreases following LK treatment of cerebellar granule neurons. This decrease is not prevented by HSB-13, HSB-22, or ASK-2a (FIG. 4). […] This is also not affected by treatment with ASK-2a or HSB-22 (FIG. 4).

[3] = system: phospho-GSK3β; assay: Western blot of signaling proteins in LK-treated cerebellar granule neurons: phospho-GSK3β; conditions: LK medium with compound, 3 h
Method: as §1, §2
Since the Raf-MEK-ERK and the PI-3 Kinase-Akt pathways are not required for neuroprotection by HSB-13, the involvement of other signaling molecules that are known to promote neuronal survival was determined. GSK3β is a proapoptotic molecule that is activated during apoptosis in many neuronal and non-neuronal systems. Under survival promoting conditions GSK3β is kept inactivated by phosphorylation at an inhibitory site, a modification that can be induced by Akt as well as by other kinases.

[4] = system: c-jun; assay: Western blot of c-jun expression in LK-treated cerebellar granule neurons; conditions: 25 μM, 3 h
Method: (§3) Cerebellar neuron cultures were treated for 3 h with HK, LK, or LK medium containing 25 μM HSB-13, 25 μM ASK-2a, or 25 μM HSB-22. Whole cell lysates were then prepared and subjected to Western blot analysis using antibodies against c-jun and ATF-3.
as §2
(§4) C-jun expression is induced in a variety of tissue culture and in vivo paradigms of neuronal apoptosis (Schenkel et al., 2004). […] Treatment with HSB-13 inhibited c-jun expression even lower that that seen in HK-treated cultures. […] The suppression of ATF-3 expression using siRNA inhibits LK-mediated death of cerebellar granule neurons has been previously been described by the present inventors (Chen et al., 2008a). […] As observed with c-jun, the suppression was most robust with HSB-13. As a result these compositions can inhibit the activity of c-jun and ATF-3, which in turn play a role in treating cancer and oncoproteins like c-jun.

[5] = system: ATF-3; assay: Western blot of ATF-3 expression in LK-treated cerebellar granule neurons; conditions: 25 μM, 3 h
Method: as §3, §2, §4

| SMILES | effect of pharmacological inhibition of the MEK-ERK and PI-3K-Akt pathways on neuroprotective action [1] | phosphorylation of Akt at Ser473 in LK [2] | dephosphorylation of GSK3β in LK [3] | induction of c-jun expression by LK [4] | LK-mediated increase in ATF-3 [5] | neuroprotection in the presence of H89 ([1]; H89 10 μM (PKA inhibitor)) | neuroprotection in the presence of KN-62 ([1]; KN-62 10 μM (CaMK inhibitor)) | neuroprotection in the presence of TSA ([1]; TSA 1 μM (histone deacetylase inhibitor)) |
| --- | --- | --- | --- | --- | --- | --- | --- | --- |
| O=C1Nc2ccccc2OC1=Cc1cc(Br)c(O)c(Br)c1 [ASK-2a] | no effect | not affected | inhibit dephosphorylation | inhibited | inhibited |  |  |  |
| Nc1ccc2c(c1)NC(=O)/C(=C/c1cc(Br)c(O)c(Br)c1)O2 [HSB-13, (Z)-6-amino-2-(3,′5′-dibromo-4′-hydrozybenzylidene)-2H-benzo[b][1,4]oxazin-3(4H)-one] | no effect | inhibits Akt (Ser473) phosphorylation even more than that seen in LK | not inhibited | inhibited | inhibited | no effect | not, however, reduced | did not inhibit |
| O=C1Nc2cc(Cl)ccc2O/C1=C\c1cc(Br)c(O)c(Br)c1 [HSB-22] | no effect | not affected | inhibit dephosphorylation | inhibited | inhibited |  |  |  |
